Results reported in US20230117947A1, “Seed Treatment Methods and Compositions” (Novozymes BIOAG A/S, priority 2011, published 2023).
Marks after values point to notes of the source that are not given here.

How the values were obtained:
Assay type in all cases: in vivo
[1] = tested on: soybean seed (Stine 52118); assay: Field trial (Example 2): grain yield from treated soybean seed, Whitewater, Wis.; details: for GRAIN YIELD @ 13%: 4.8 fl oz/cwt, 13% seed moisture
Method: A soybean trial was conducted to evaluate embodiments of the present invention on grain yield when applied on soybean seed. The field trial site was located near Whitewater, Wis. and characterized by Milford silty clay loam soil. […] The plant signal molecules used in the trial were same as in Example 1. The soybean seed used in the study was Stine 52118. The plant signal molecules were sprayed onto seeds with/without dilution at a rate of 4.8 fl oz/cwt. The study was conducted in a randomized complete block design, with a plot size of 10 feet by 50 feet (0.011 acres), with 7.5-inch row spacing. Four replications were conducted. Seed were treated with the plant signal molecules 4.5 or 5 months prior to planting and just prior to planting, and were planted at a depth of 1 inch and at a seedling rate of 225,000 seeds per acre using a John Deere 750 NT grain drill. The pesticides Extreme® and AMPS® were both applied 10 days prior to planting (pre-emergence) at rates of 3.0 pt and 2.5 lb, respectively. Assure II®, Roundup WeatherMax® and AMPS® were all applied 45-days post-planting (post-emergent), at rates of 6.0 oz, 21 oz and 2.5 lb, respectively. Plants were harvested 4 months and 21 days after planting. The Control seed was treated with an amount (wt) of water, corresponding to the amount (wt) of the experimental signal molecule composition (signal molecule+carrier). The Control seed was stored under the same conditions as the experimental seed prior to planting and planted at the same time as the experimental seed in the same soil.

Soybean seeds = assay: Greenhouse test (Example 3): root length and root volume of seedlings from stored treated seed (Winrhizo scanner); details: for % increase in root length / % increase in root vol.: versus Control; for Root Vol. / Root length: 10^−7M, stored at 15° C., harvested after 10 days
Method: Soybean seeds treated with 10^−7M pure LCO-V (C18:1, MeFuc) and stored at 15° C. Treated seeds and non-treated seeds (control) were planted 1 and 12 months after treatment in greenhouse pots containing sand:perlite (1:1 mixture). Seedlings were grown for 10 days after seed plantings then seedlings were harvested, their roots cleaned and measured on the Winrhizo® scanner. The Control seed was treated with an amount (wt) of water, corresponding to the amount (wt) of the experimental signal molecule composition (signal molecule+carrier). The Control seed was stored under the same conditions as the experimental seed prior to planting and planted at the same time as the experimental seed in the same soil.

[2] = tested on: soybean seed (Stine S2118); assay: Field trial (Example 1): grain yield from treated soybean seed, Whitewater, Wis.; details: for GRAIN YIELD @ 13%: 4.8 fl oz/cwt, 13% seed moisture
Method: A field trial was conducted to evaluate embodiments of the present invention on grain yield when applied on soybean seed. The field trial site was located near Whitewater, Wis. and characterized by Milford silty clay loam soil.
The plant signal molecules used in the trial were Optimize®, a non-commercial grade of Optimize® (NI-50S-1), pure LCO-V (C18:1, MeFuc)(NI-50GREN-1) and a non-commercial grade of LCO-V (C18:1, MeFuc)(NI-50S-2CF). The soybean seed used in the study was Stine S2118. The plant signal molecules were sprayed onto seeds with/without dilution at a rate of 4.8 fl oz/cwt.
The study was conducted in a randomized complete block design, with a plot size of 10 feet by 50 feet (0.011 acres), with 7.5-inch row spacing. Four replications were conducted. Seed were treated with the plant signal molecules 4.5 or 5 months prior to planting and just prior to planting, and were planted at a depth of 1 inch and at a seedling rate of 225,000 seeds per acre using a John Deere 750 NT grain drill. The pesticides Extreme® and AMPS® were both applied 11 days prior to planting (pre-emergence) at rates of 3.0 pt and 2.5 lb, respectively. Assure II®, Roundup WeatherMax® and AMPS® were all applied 46-days post-planting (post-emergent), at rates of 6.0 oz, 21 oz and 2.5 lb, respectively. Plants were harvested 4 months and 20 days after planting.
The Control seed was treated with an amount (wt) of water, corresponding to the amount (wt) of the experimental signal molecule composition (signal molecule+carrier). The Control seed was stored under the same conditions as the experimental seed prior to planting and planted at the same time as the experimental seed in the same soil.

[3] = 5 months pre-planting (Group 5) versus at planting (Group 4)
[4] = seed treated 5 months prior to planting
[5] = planted 1 month after treatment

## LCO-V (C18:1, MeFuc) [NI-50GREN-1]
[1]; [3]
  decrease in soybean yield: 1.8 bushels/acre
[1]; [4]
  GRAIN YIELD @ 13%: 64.0 bushels/acre
[1]; seed treated at planting
  GRAIN YIELD @ 13%: 65.8 bushels/acre
Soybean seeds; 1 month after treatment
  % increase in root length: 5.46%
  % increase in root vol.: 2.86%
Soybean seeds; 1 yr after treatment
  % increase in root length: 37.92%
  % increase in root vol.: 34%
Soybean seeds; [5]
  Root Vol.: 0.468 cm^3
  Root length: 135* cm
Soybean seeds; planted 1 yr after treatment
  Root Vol.: 0.540* cm^3
  Root length: 159.3* cm
[2]; [3]
  increase in soybean yield: 8.3 bushels/acre
[2]; [4]
  GRAIN YIELD @ 13%: 70.5 bushels/acre
[2]; seed treated at planting
  GRAIN YIELD @ 13%: 62.2 bushels/acre
